Reference: a melting point compilation (Tetko et al.)
Peptide text beside a SMILES is read from it.

| melting point [°C] | Compound |
| --- | --- |
| 259 | N[C@@H](Cc1ccc(OCc2ccccc2)cc1)C(=O)O |
| 72 to 73 | Cc1nn(-c2ccccc2)nc1CBr |
| 190 | BrC(=NNc1ccccc1)c1ccccc1 |
| 250 to 255 | O=C(CSc1nc(=O)[nH]c2c1CCCC2)c1ccccc1 |
| 214 | O=C(O)C=Cc1ccc(O)cc1 |
| < 20 | Brc1ccc(Oc2ccccc2Br)cc1 |
| 110 to 112 | Clc1ncnc2scc(-c3cccs3)c12 |
| 53.5 | O=C(Cl)c1ccc(Cl)c([N+](=O)[O-])c1 |
| 185 | Cc1c(C)c2c(c(C)c1O)CCC(C)(COc1ccc(CC3SC(=O)NC3=O)cc1)O2 (stereo not given) |
| 37 to 45 | O=C(CC(=O)C(F)F)c1ccccc1 |
| 300 to 302 | N#C/C(=N\Nc1cc(Cl)ccc1Cl)c1nc2ccccc2[nH]1 |
| 78 to 79 | O=C1CCCc2ccc(Br)cc21 |
| 67 to 72 | CN1CCN(c2ccccc2C(=O)O)CC1 |
| 52 | CC(C)(Oc1ccc(Cl)cc1)C(=O)OCCCOC(=O)C(C)(C)Oc1ccc(Cl)cc1 |
| 39.5 | CC(=O)C=Cc1ccco1 |
| 321 | Cc1cc2c(C#N)c3n(C)c4ccccc4n3c(=O)c2c(C)n1 |
| 41 | Cc1ccc(C(=O)N(C)C)cc1 |
| 214 to 217 | COc1cc2c(cc1OC)C(C#N)N(C(=O)c1ccccc1)CC2 (stereo not given) |
| 88 | Clc1ccc(N=Nc2ccccc2)cc1 |
| 260 | O=C(O)c1cc(=O)c2ccccc2o1 |
| 208 to 210 | CC(=O)NC1C(Oc2ccc3c(C)cc(=O)oc3c2)OC(CO)C(O)C1O (stereo not given) |
| 63 | Cc1cc2ccccc2c(Br)c1C |

| melting point [°C] | Compound |
| --- | --- |
| 92 | COc1ccc(C(C)=O)cc1F |
| 123 to 126 | CC1=CC(=O)C(C)=CC1=O |
| 119 | O=Nc1ccc(C(=O)OC2Cc3ccccc32)cc1 (stereo not given) |
| 121 | O=C1Cc2cccc3cccc1c23 |
| 155 to 157 | Cc1cc(C(=O)Nc2ccc(Cl)cc2)no1 |
| 114 | COc1cc(-c2ccc(N=C=O)c(OC)c2)ccc1N=C=O |
| 190 to 195 | Cc1ccccc1NC(N)=O |
| 192 | NC(=O)c1ccc(Cl)cc1Cl |
| 86 to 89 | CC(C)(C)OC(=O)ON=C(C#N)c1ccccc1 |
| 206 | O=C(O)c1cc2ccccc2[nH]1 |
| 104 to 105 | Cc1nn(-c2ccccc2)nc1C(=O)Cl |
| 67 | Cc1cnc(CO)c(C)c1[N+](=O)[O-] |
| 188 | COc1ccc(/C=N/n2c(S)nnc2C(F)(F)F)cc1 |
| 116 | CC1(C)OC(=O)C(=Cc2ccc(Br)o2)C(=O)O1 |
| 135 | Cc1c(N/N=C(/C(=O)c2ccc([N+](=O)[O-])cc2)S(=O)(=O)c2ccccc2)c(=O)n(-c2ccccc2)n1C |
| 115 | CC(C)(Oc1ccc(C2CC2(Cl)Cl)cc1)C(=O)O (stereo not given) |
| 132 | CC(CCc1oc2ccc(Br)cc2c1-c1ccc(C)o1)=NO |
| 184 | CC(=O)/N=c1\sc(C(C)=O)nn1-c1ccccc1[N+](=O)[O-] |
| 80 | CC1=Cc2ccccc2C1 |
| 130 | O=C(c1cccs1)c1noc(-c2ccc(Br)cc2)c1S(=O)(=O)c1ccccc1 |
| 234 to 242 | Nc1ccc([N+](=O)[O-])c(C(=O)O)c1 |
| 82 to 85 | O=C(CBr)c1ccc2ccccc2c1 |

| melting point [°C] | Compound |
| --- | --- |
| 98.5 | O=C(c1ccccc1)c1cccc(C(=O)c2ccccc2)c1 |
| 175 | Cc1cccc(NC(=O)C(C(F)(F)F)C(F)(F)F)c1 |
| 122 | O=C1OC(c2ccccc2)=N/C1=C\c1ccc(Br)o1 |
| 156 to 161 | O=C(O)COc1cccc([N+](=O)[O-])c1 |
| 191 to 192 | Cc1ccc(NC(=O)C(O)C(O)C(=O)O)cc1 (single isomer, unassigned; (-)) |
| 186 to 188 | COc1ccc(C=C(CC(=O)O)C(=O)O)cc1 |
| 106 to 107 | O=S(=O)(Cl)c1ccc(-c2cc(C(F)(F)F)on2)s1 |
| 122 | CCP(=O)(c1ccccc1)c1ccccc1 |
| 173 | CC(C)(C)c1ccc(C(N)=O)cc1 |
| 211 | COc1ccc(C2C(C#N)=C(N)Oc3c2c(C(F)(F)F)nn3-c2ccccc2)cc1 (stereo not given) |
| 175 | COc1ccc(C(N)=O)cc1[N+](=O)[O-] |
| 196 to 198 | NC(=O)c1sc(NCc2ccccc2)nc1N |
| 112 to 115 | CC(=O)OCC1OC(C#N)=CC(OC(C)=O)C1OC(C)=O (stereo not given) |
| 139 | NC(=O)C1CCN(CCCN2c3ccccc3Sc3ccc(Cl)cc32)CC1 |
| 114 | C[P+]([O-])(CCCCN1C(=O)c2ccccc2C1=O)OCCCCN1C(=O)c2ccccc2C1=O (stereo not given) |
| 75 to 78 | O=Cc1ccc(-c2ccccc2Cl)o1 |
| 194 to 197 | C=CCOC(=O)Nc1cc(O)cc(C(=O)O)c1 |
| 158 | O=C(O)C(F)=Cc1ccccc1 |
| 262 | Cc1cnc(NS(=O)(=O)c2ccc(N)cc2)nc1 |
| 84 | CC(=O)c1ccc(S(=O)(=O)Cl)cc1 |
| 165 | CC1=C(C(=O)O)C(c2ccccc2)N(C)C(=O)N1C (stereo not given) |

Second part, the compound before the results:

| Compound | melting point [°C] |
| --- | --- |
| CCOC(=O)C1CCN(c2cc(C#N)ccn2)CC1 | 51 to 53 |
| CC(=O)C1(O)C(C)CC2C3CC=C4CC(O)CCC4(C)C3CCC21C (stereo not given) | 224 to 230 |
| CCOC(=O)Cc1csc(N)n1 | 91 to 95 |
| COc1ccc2c(c1C)CC2C#N (stereo not given) | 80 |
| CC=CCCCCC | -80 |
| CCCCCCCCCN | -1 |
| CC(=O)OC1=C(C(C)C)C(=O)C2=C(C1=O)C1(C)CCCC(C)(C)C1CC2OC(C)=O (stereo not given) | 121 |
| N#CC1(c2ccc(F)cc2Cl)CCCCC1 | 58 to 65 |
| C1CCN(C2CCNCC2)CC1 | 68 |
| CC1(C)C(Br)=C(Br)C(=O)C1Br (stereo not given) | 87 |
| CC1=CCC2CC1C2(C)C (racemic) | -55 |
| CC(COc1ccc(Oc2ccccc2)cc1)Oc1ccccn1 (stereo not given) | 49 |
| COc1ccc(OCC(N)=S)cc1 | 113 to 114 |
| Fc1cc(Br)c(F)cc1Br | 62 |
| CCCCc1c(C)nc(NCC)nc1O | 160 |
| O=C(CCCN1CCC(O)(c2ccc(Cl)cc2)CC1)c1ccc(F)cc1 | 148 |
| Cc1noc(C)c1CO | 76 to 77 |
| C1CNCCCNCCNCCCNC1 | 98 to 102 |
| NS(=O)(=O)c1cc(-c2nnn[nH]2)c(NCc2cccs2)cc1Cl | 220 |
| Ic1ccc(N2CCOCC2)nc1 | 133 |

| Compound | melting point [°C] |
| --- | --- |
| CC(C(=O)Nc1ccc(F)c(F)c1F)(C(F)(F)F)C(F)(F)F | 44 |
| CO[C@]1(CBr)O[C@H](COC(=O)c2ccc(C)cc2)[C@@H](OC(=O)c2ccc(C)cc2)[C@@H]1OC(=O)c1ccc(C)cc1 | 148 to 149 |
| CN1CCN(Cc2ccccc2I)CC1 | 37 to 38 |
| CCCCCCCCOC=O | -39.1 |
| C=Nc1cnn(-c2ncnc3c2cnn3C)c1C=COCC | 155 |
| C=CC(Cl)(Cl)Cl | -30 |
| C=CC1(C)CC(OC(=O)CO)C2(C)C(C)CCC3(CCC(=O)C32)C(C)C1O (stereo not given) | 170 |
| BrCC(Br)c1cccc(C(Br)CBr)c1 (stereo not given) | 65 |
| N#C[C@@H]1CCCC[C@H]1O (relative stereo) | 46 to 49 |
| C=CCCC(=C)C | -129 |
| c1ccc(-c2ccc(-c3nc4ccc(-c5ccccc5)cc4o3)cc2)cc1 | 199 to 201 |
| C[C@H](N)C(=O)N[C@@H](C)C(=O)O (H-Ala-Ala-OH) | 286 to 288 |
| Cc1cc(C)c2c(c1C)CC2=O | 98 |
| CNCc1ccc(-c2cncnc2)cc1 | 45 to 46 |
| c1ccc2c(c1)[nH]c1cnccc12 | 199 to 201 |
| Fc1ccc(CBr)c(Cl)c1 | 37 |
| Nc1ccc(-c2ccc(N)cc2Cl)c(Cl)c1 | 165 |
| Cc1cc(C)c2c(c1)CC2(C)O (stereo not given) | 58 |
| CNP(=O)(OC)Oc1ccc(C(C)(C)C)cc1Cl (stereo not given) | 60 |
| CCCCNCCO | -2 |

| Compound | melting point [°C] |
| --- | --- |
| CC(C)C(C(=O)OC(C#N)c1cccc(Oc2ccccc2)c1)c1ccc(Cl)cc1 (stereo not given) | 60 |
| O=C1CCCCCC1=O | -40 |
| CC(C)C(C)C=CC(C)C1CCC2C3=CC=C4CC(O)CCC4(C)C3CCC21C (stereo not given) | 170 |
| COc1ncc(F)c2nc(S(=O)(=O)Nc3c(F)cccc3F)nn12 | 194 |
| O=C(Nc1c(Cl)cc(Cl)cc1Cl)C(F)(F)C(F)(F)C(F)(F)C(F)(F)C(F)(F)C(F)(F)C(F)(F)C(F)(F)F | 115 |
| O=C(Nc1cc(Cl)ccc1Cl)C(C(F)(F)F)C(F)(F)F | 211 |
| CC=C(C)C(=O)O | 64.5 |
| O=P(c1ccccc1)(c1ccccc1)C1CCCCC1 | 166 |
| CCC(C)C1(CC)C(=O)NC(=O)NC1=O (stereo not given) | 167 |
| Nc1ccc2c(c1)C(=O)OC21c2ccc(O)cc2Oc2cc(O)ccc21 | 223 |
| CC(C)Oc1cc(N)c(Cl)cc1Cl | 42 |
| COc1cc(Cl)nc(N)n1 | 169 to 176 |
| NC(=O)CCC(=O)O | 155 |
| ICCCCCCI | 9.5 |
| c1ccc(C(c2ccccc2)=P(c2ccccc2)(c2ccccc2)c2ccccc2)cc1 | 169 to 171 |
| O=[N+]([O-])c1ccc(/C(Cl)=C\c2cccc(/C=C(/Cl)c3ccc([N+](=O)[O-])cc3[N+](=O)[O-])c2)c([N+](=O)[O-])c1 | 215 |
| Nc1ccc(N)c(N)c1 | 97.3 |
| Cn1c(S)nnc1CNC(=O)OC(C)(C)C | 168 to 169 |
| Cc1cc(CO)n(C)n1 | 52 to 54 |
| Clc1cncc(Cl)c1Cl | 72 |
